Measured values as given in patent US20230322815A1, “NOVEL COMPOUNDS AND THERAPEUTIC USES THEREOF” (University of Huddersfield, priority 2020, published 2023).

How the values were obtained:
[1] = system: panel of human cancer (HT-29, DLD-1, HCT116 p53^+/+ and p53^−/−, PSN1, MiaPaCa2, BxPC3, A549, H460, GBM1) and non-cancer cell lines (ARPE-19, MCF10A, NP1); assay: Chemosensitivity of a panel of human cancer and non-cancer cell lines (MTT, 96 h); assay type: cell-based; settings: cancer versus non-cancer cells
Protocol: FIG. 7. Chemosensitivity response of a panel of human cancer and non-cancer cell lines to 96 h continuous exposure to self-assembling test compounds. a, The potency of compounds tested against cancer (HT-29, DLD-1, HCT116 p53^+/+ and […], PSN1, MiaPaCa2, BxPC3, A549, H460 and GBM1) and non-cancer cells (ARPE-19, MCF10A and NP1). Each value represents the mean IC50±standard deviation from a minimum of three independent experiments. b,c, The selectivity index (SI) for [L2Cu3]^6+ (b) and [L2Zn3]^6+ (c) for the indicated cancer cell lines; SI is defined as the mean IC50 against the particular non-cancer cell line model divided by the mean IC50 against the particular cancer cell line. […] As the SI value is calculated using the mean IC50 values, experimental error is not included in these figures. d,e, IC50 values for the clinically approved platinates (cisplatin, oxaliplatin and carboplatin) and [L2Mn3]^6+ and the corresponding SI results.
All cell lines used were maintained at low passage in antibiotic-free media and were obtained from ATCC (LGC Standards, Middlesex, UK) unless otherwise stated (Methods). HT29, DLD-1, HCT116 p53^+/+ and HCT116 p53^−/− are all colorectal adenocarcinoma cell lines derived from different individuals and harbor different combinations of oncogenic lesions (except for the HCT116 isogenic cancer cell clones that are genetically identical except for p53 status). PSN-1, BxPC-3 and MiaPaCa2 are pancreatic carcinoma cell lines and A549 and H460 are lung carcinoma cell lines. HT29, DLD-1, PSN-1, BxPC-3, A549 and H460 cell lines were cultured in RPMI-1640 growth media (Sigma) containing 2 mM L-glutamine, 1 mM sodium pyruvate and 10% fetal bovine serum (FBS). HCT116 (p53^+/+ and p53^−/−) and MiaPaCa2 cell lines were cultured in Dulbecco's Modified Eagle's Medium (Sigma), 2 mM L-glutamine and 10% FBS. The ARPE-19 retinal epithelial non-cancer cell line (Dunn et al., 1996) was cultured in DMEM/F12 media (Gibco), 2 mM L-glutamine, 1 mM sodium pyruvate and 10% FBS. The MCF10A non-cancerous human breast epithelial cell line was cultured in Minimal Essential Media Eagle (Sigma), 2 mM L-glutamine, 1 mM sodium pyruvate, 10% FBS and 1×non-essential amino acids (NEAA). NP1 and GBM1 cells were cultured on plasticware coated with poly-L-ornithine (5 μg/ml) and laminin (2.4 μg/ml) (Polson et al., 2018; Da Silva et al., 2019). […]
[L2M3]^6+ and all the other self-assembling complexes were freshly formed by adding DMSO to individual components mixing together by pipetting. […] Media and MTT were removed and formazan crystals were dissolved in 150 μl of DMSO and the absorbance of the resulting solution determined at 540 nm. […]

[2] = Phosphatase activity: hydrolysis of 4-nitrophenyl phosphate; settings: UV-Vis spectroscopy, after 24 hrs
Description: Only [L2Zn3(PO4)]^3+ was observed, coupled with a rapid yellowing of the solution due to the formation of 4-nitrophenolate.
The rate of substrate hydrolysis is also dependent upon the metal used in the self-assembly process.

[3] = system: HCT116 p53^−/− cancer cells; assay: Autophagy (CYTO-ID staining, confocal); assay type: cell-based, human; settings: 3.125 μM, 40 h
Protocol: (§1) FIG. 17. The effects of [L2Cu3]^6+, [L2Zn3]^6+ and [L2Mn3]^6+ on cellular vacuole formation and autophagy in the HCT116 p53^−/− cancer cells. Representative confocal images are shown of HCT116 p53^−/− cancer cells following 40 h treatment with vehicle control or 3.125 μM [L2Cu3]^6+, [L2Zn3]^6+, or [L2Mn3]^6+.
(§2) Autophagy studies: The effects of 3.125 μM [L2Cu3]^6+, [L2Zn3]^6+ and [L2Mn3]^6+ treatments (40 h) on the induction of cellular vacuoles and autophagy in the HCT116 p53^−/−, HCT116 p53^+/+ and ARPE19 cells are presented in FIGS. 17-19 with representative cell images shown. […] In the ARPE19 cells, levels of autophagy were low with all treatments and similar to basal levels in control-treated cells (FIG. 19).

[4] = system: HCT116 p53^+/+ cancer cells; assay: Autophagy (CYTO-ID staining, confocal); assay type: cell-based, human; settings: 3.125 μM, 40 h
Protocol: as §1, with “18.” for “17.”, “p53^+/+” for “p53^−/−”
as §2

ARPE19 non-cancer cells = assay: Cellular ATP levels; assay type: cell-based, human; settings: 100 μM, 20 h
Protocol: FIG. 20. The effects of [L2Cu3]^6+, [L2Zn3]^6+ and [L2Mn3]^6+ on cellular ATP levels in the ARPE19 non-cancer and HCT116 p53^+/+ cancer cells. The effects of 20 h treatment with the indicated concentrations of [L2Cu3]^6+, [L2Zn3]^6+, or [L2Mn3]^6+ on total cellular levels of ATP compared to levels in vehicle control-treated ARPE19 or HCT116^+/+ cells. n=3 biological repeats, students t-test (p values).
Cellular ATP studies: The effects of 20 h treatment with a range of different concentrations of [L2Cu3]^6+, [L2Zn3]^6+ and [L2Mn3]^6+ on total cellular ATP levels in HCT116 p53^+/+ and ARPE19 cells are presented in FIG. 20. Differential effects are observed depending on the metal in the complex, with [L2Mn3]^6+ having the most profound effects on both the HCT116 p53^+/+ cancer and ARPE19 non-cancer cells. 6.25 μM [L2Mn3]^6+ treatment for 20 h reduced ATP levels in the HCT116 p53^+/+ cancer cells to <50% with ATP levels declining less in the ARPE19 non-cancer cells but reaching ˜40% with 100 μM [L2Mn3]^6+ treatment. […] Effects of [L2Cu3]^6+ on ATP levels was much less, with ATP levels in the HCT116 cells reduced to <50% only at the highest concentration of 100 μM.

## [Mn+2].[Mn+2].[Mn+2].c1ccc(-c2csc(NCCN(CCNc3nc(-c4ccccn4)cs3)CCNc3nc(-c4ccccn4)cs3)n2)nc1.c1ccc(-c2csc(NCCN(CCNc3nc(-c4ccccn4)cs3)CCNc3nc(-c4ccccn4)cs3)n2)nc1 [[L2Mn3]^6+]
[1]
  preferential selectivity towards cancer cells: ~2 fold
[2]
  phosphate hydrolysed compared with the Zn^2+ species: three times more phosphate
[3]
  induction of autophagy: most pronounced
[4]
  induction of autophagy: evident
ARPE19 non-cancer cells
  ATP levels compared to vehicle control: ~40%
